Test results: US7179807B2, “5-substituted-2-arylpyrazines” (Neurogen Corporation, priority 2002, dated 2007)
pKi: −log10 of the molar value.

Biological target: T1, CRF1 receptor (Homo sapiens, UniProt P34998)
T1 construct: To induce CRF1 receptor expression, the cells are grown to approximately 80% confluence; endogenous in cells; host or cells: IMR-32 human neuroblastoma cells, BrdU-induced, as membrane homogenates
T1 sequence (P34998 24-415): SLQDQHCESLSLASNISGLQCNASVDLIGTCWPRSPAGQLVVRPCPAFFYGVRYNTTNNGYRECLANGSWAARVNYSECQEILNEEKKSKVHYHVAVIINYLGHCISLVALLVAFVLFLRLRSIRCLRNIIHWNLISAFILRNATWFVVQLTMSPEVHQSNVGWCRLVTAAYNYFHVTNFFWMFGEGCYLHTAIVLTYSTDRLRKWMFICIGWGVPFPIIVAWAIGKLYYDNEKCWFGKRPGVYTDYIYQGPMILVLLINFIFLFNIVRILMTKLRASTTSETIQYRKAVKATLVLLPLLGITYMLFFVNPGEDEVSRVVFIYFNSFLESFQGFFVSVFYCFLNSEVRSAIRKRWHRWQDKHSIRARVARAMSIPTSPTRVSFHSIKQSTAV
Assay: standard in vitro CRF receptor binding assay (125I-CRF, IMR-32 cell membranes)
Settings: Table I; asterisk = tested in the Example 30 assay, membranes of BrdU-induced IMR-32 cells, 125I-CRF 100 pM; read-out: Ki < 1 μM
Experimental: As discussed above, the following assay is defined herein as a standard in vitro CRF receptor binding assay. The pharmaceutical utility of compounds of this invention is indicated by the following assay for CRF1 receptor activity.
The CRF receptor binding is performed using a modified version of the assay described by Grigoriadis and De Souza (Methods in Neurosciences, Vol. 5, 1991). IMR-32 human neuroblastoma cells, a cell line that can be induced to express the CRF1 receptor, are cultured in growth medium consisting of EMEM w/Earle's BSS (JRH Biosciences, Cat# 51411) supplemented with 10% Fetal Bovine Serum, 25 mM HEPES (pH 7.2), 1 mM Sodium Pyruvate, and Non-Essential Amino Acids (JRH Biosciences, Cat# 58572). Stock cultures of cells are grown to confluence and subcultured twice per week at split ratios of 1:2 to 1:4 (cells are dislodged during subculturing using No-Zyme, JRH Biosciences, Cat# 59226). To induce CRF1 receptor expression, the cells are grown to approximately 80% confluence and then changed to growth media containing 2.5 μM 5-bromo-2′deoxyuridine (BrdU, Sigma, Cat# B9285). Growth media containing BrdU is replaced every 3–4 days and the cells are harvested via centrifugation (using No-Zyme) after 10 days of BrdU treatment. Harvested cells are stored frozen at −80° C. until needed for the preparation of membrane homogenates.
To prepare receptor-containing membranes cells are homogenized in wash buffer (50 mM Tris HCl, 10 mM MgCl2, 2 mM EGTA, pH 7.4) and centrifuged at 48,000×g for 10 minutes at 4° C. The pellet is re-suspended in wash buffer and the homogenization and centrifugation steps are performed once more.
Membrane pellets (containing CRF receptors) are resuspended and brought to a final concentration of 1.0 mg membrane protein/ml in binding buffer (Tris buffer above with 0.1% BSA and 0.1 mM bacitracin). For the binding assay, 150 microliters of the membrane preparation is added to 96 well microtube plates containing 50 microliters of ^125I-CRF (SA 2200 Ci/mmol, final concentration of 100 pM) and 2 microliters of test compound. Binding is carried out at room temperature for 2 hours. Plates are then harvested using 50 mM Tris buffer pH 7.4, on a BRANDEL 96 well cell harvester and filters (soaked in 1% PEI for 1.5 hours) are counted for gamma emissions on a Wallac 1205 BETAPLATE liquid scintillation counter. Non-specific binding is defined by 2 micromolar cold CRF. Ki values are calculated with the non-linear curve fitting program RS/1 (BBN Software Products Corp., Cambridge, Mass.).

Compound | pKi
[5-Ethyl-6-(2-ethoxy-6-isopropoxy-2-pyridin-3-yl)-3-(1-ethyl-propoxy)-pyrazin-2-yl]-methyl-amine [Compound 7] | > 6.00
CCC(CC)Nc1nc(C)c(-c2nc(OC)c(NC(CC)CC)nc2C)nc1OC [Compound 2, N-5,N-5′-Bis-(1-ethyl-propyl)-6,6′-dimethoxy-3,3′-dimethyl-[2,2′]bipyrazinyl-5,5′-diamine] | > 6.00
CCc1nc(OC(CC)CC)c(NC)nc1-c1ccc(C(C)C)nc1C [Compound 8, [5-Ethyl-6-(2-methyl-6-isopropyl-2-pyridin-3-yl)-3-(1-ethyl-propoxy)-pyrazin-2-yl]-methyl-amine] | > 6.00
CCc1cc(-c2nc(NC)c(OC(CC)CC)nc2CC)c(C)nc1OC [Compound 4, [5-Ethyl-6-(5-ethyl-6-methoxy-2-methyl-pyridin-3-yl)-3-(1-ethyl-propoxy)-pyrazin-2-yl]-methyl-amine] | > 6.00
CCc1nc(OC(CC)CC)c(NC)nc1-c1c(C)noc1C [Compound 5, [6-(3,5-Dimethyl-isoxazol-4-yl)-5-ethyl-3-(1-ethyl-propoxy)-pyrazin-2-yl]-methyl-amine] | > 6.00
CCc1cc(-c2nc(OC)c(NC(CC)CC)nc2C)c(C)nc1OC [Compound 1, [5-(5-Ethyl-6-methoxy-2-methyl-pyridin-3-yl)-3-methoxy-6-methyl-pyrazin-2-yl]-(1-ethyl-propyl)-amine] | > 6.00
[5-Ethyl-6-(2-ethyl-6-isopropoxy-2-pyridin-3-yl)-3-(1-ethyl-propoxy)-pyrazin-2-yl]-methyl-amine [Compound 6] | > 6.00
CCc1cc(-c2nc(NC)c(OC(CC)CC)nc2C)c(C)nc1OC [Compound 3, [5-Methyl-6-(5-ethyl-6-methoxy-2-methyl-pyridin-3-yl)-3-(1-ethyl-propoxy)-pyrazin-2-yl]-methyl-amine] | > 6.00

Continued, values first:

pKi | Compound
> 6.00 | CCc1nc(OC(CC)CC)c(NC)nc1-c1ccc(C(C)C)nc1N1CCC1 [Compound 13, [6-(2-Azetidin-1-yl-6-isopropyl-pyridin-3-yl)-5-ethyl-3-(1-ethyl-propoxy)-pyrazin-2-yl]-methyl-amine]
> 6.00 | CCC(CC)Oc1nc(C)c(-c2cc(C)c(NC(C)C)nc2C)nc1NC [Compound 17, [3-(1-Ethyl-propoxy)-6-(6-isopropyl-amino-2,5-dimethyl-pyridin-3-yl)-5-methyl-pyrazin-2-yl]-methyl-amine]
> 6.00 | CCc1nc(OC(CC)CC)c(NC)nc1-c1ccc(C(C)C)nc1N(C)C [Compound 11, [5-Ethyl-6-(2-dimethylamino-6-isopropyl-2-pyridin-3-yl)-3-(1-ethyl-propoxy)-pyrazin-2-yl]-methyl-amine]
> 6.00 | CCc1nc(OC(CC)CC)c(NC)nc1-c1ccc(N(C)C)nc1C [Compound 10, [5-Ethyl-6-(2-methyl-6-dimethylamino-2-pyridin-3-yl)-3-(1-ethyl-propoxy)-pyrazin-2-yl]-methyl-amine]
> 6.00 | CCc1nc(OC(CC)CC)c(NC)nc1-c1ccc(C(C)C)nc1O [Compound 9, [5-Ethyl-6-(2-hydroxy-6-isopropyl-2-pyridin-3-yl)-3-(1-ethyl-propoxy)-pyrazin-2-yl]-methyl-amine]
> 6.00 | CCC(CC)Oc1nc(Br)c(-c2cc(Br)c(NC(C)C)nc2C)nc1NC [Compound 15, [3-(1-Ethyl-propoxy)-6-(6-isopropyl-amino-2-methyl-5-bromo-pyridin-3-yl)-5-bromo-pyrazin-2-yl]-methyl-amine]
> 6.00 | CCc1cc(-c2nc(NC)c(OC(CC)CC)nc2CC)c(C)nc1N(C)C [Compound 16, [6-(6-Dimethylamino-5-ethyl-2-methyl-pyridin-3-yl)-5-ethyl-3-(1-ethyl-propoxy)-pyrazin-2-yl]-methyl-amine]
> 6.00 | CCc1nc(OC(CC)CC)c(NC)nc1-c1ccc(C(C)C)nc1N(CC)CC [Compound 14, [6-(2-Diethylamino-6-isopropyl-pyridin-3-yl)-5-ethyl-3-(1-ethyl-propoxy)-pyrazin-2-yl]-methyl-amine]
